Drawing on ChEMBL document CHEMBL3639371, “KAT II inhibitors” (2013), this text covers IC50 for 1 compound.

This experiment has as its target Kynurenine/alpha-aminoadipate aminotransferase, mitochondrial (Homo sapiens, UniProt Q8N5Z0). Nature of the experiment: Inhibition Spectra Assay : Formation of kynurenic acid (KYNA) is indirectly assessed by a decrease in light absorbance at 370 nm (OD370) as the L-kynurenine (KYN) substrate is converted by the human KAT II (hKAT II) enzyme into KYNA.

Chain of Kynurenine/alpha-aminoadipate aminotransferase, mitochondrial (Q8N5Z0 whole entry): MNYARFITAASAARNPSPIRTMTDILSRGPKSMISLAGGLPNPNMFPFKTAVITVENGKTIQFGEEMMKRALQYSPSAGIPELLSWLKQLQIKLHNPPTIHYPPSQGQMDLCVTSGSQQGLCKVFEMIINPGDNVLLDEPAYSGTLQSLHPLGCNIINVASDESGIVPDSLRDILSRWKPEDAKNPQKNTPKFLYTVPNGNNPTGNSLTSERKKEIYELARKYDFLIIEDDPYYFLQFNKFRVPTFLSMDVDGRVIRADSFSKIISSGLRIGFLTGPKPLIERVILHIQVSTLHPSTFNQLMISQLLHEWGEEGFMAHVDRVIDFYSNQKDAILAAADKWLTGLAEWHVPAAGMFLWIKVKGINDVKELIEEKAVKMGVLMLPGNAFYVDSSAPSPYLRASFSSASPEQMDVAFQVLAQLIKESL

Regarding `NC1Cc2nn(-c3ccccc3)cc2N(O)C1=O` (stereo unspecified), the concentration for half-maximal inhibition (IC50) was found to be 85 nM.

As a reminder, the IC50 is the concentration at which inhibition is half-maximal.
